In general, IC50 refers to the concentration that inhibits the measured activity by half. A lower IC50 goes with inhibition by little substance.

Consider four compounds from patent EP0469548B1, “4-Amino-delta4-steroids and their use as 5alpha-reductase inhibitors” (MERRELL PHARMACEUTICALS INC., priority 1990, dated 1992).

SMILES strings stand for the structures.

For the assay, the target named is T1, steroid 5α-reductase enzyme (Homo sapiens, UniProt P31213).
T1 construct: Microsomal preparations of the steroid 5α-reductase enzyme (protein) were obtained from human prostate tissue; from tissue; host or cells: human prostate tissue (microsomal preparation)
T1 sequence (P31213 1-254): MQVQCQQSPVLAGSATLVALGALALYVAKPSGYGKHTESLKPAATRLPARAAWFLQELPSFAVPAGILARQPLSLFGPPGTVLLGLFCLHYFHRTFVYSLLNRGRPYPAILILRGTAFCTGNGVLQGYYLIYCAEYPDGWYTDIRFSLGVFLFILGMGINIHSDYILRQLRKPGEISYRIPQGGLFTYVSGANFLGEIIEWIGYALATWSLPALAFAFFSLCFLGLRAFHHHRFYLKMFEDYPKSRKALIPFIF
The assay is described as follows: 5α-reductase inhibition in microsomal preparations (conversion of testosterone to dihydrotestosterone, HPLC). It counts as biochemical. On the procedure:
Microsomal preparations of the steroid 5α-reductase enzyme (protein) were obtained from human prostate tissue and stored in aliquots. Protein concentration was determined prior to use of the samples. In the method itself, individual assays for 5α-reductase activity contained 0.1M phosphate citrate buffer, pH 5.6, 1mM EDTA, 7 to 22 µg of microsomal protein, 1mM NADPH, 5 mM glucose-6-phosphate, 1 IU/ml glucose-6-phosphate dehydrogenase, 1,2-³H-testosterone, and test compound, dissolved in dimethyl sulfoxide and then diluted in phosphate-citrate buffer to yield a final assay concentration of 0.1% (v/v) dimethyl sulfoxide. The same buffer and the same quantity of dimethyl sulfoxide, without any test compound was used for the control assays. The total assay volume was 100 µl and assays were performed in duplicate. The reaction was initiated by the addition of the testosterone, and incubated for 30 minutes at 25°C. The assay is linear with time to 30 minutes.
Depending on the nature of the inhibition, testosterone concentration was typically varied from 0.15 µM (approximately 0.5 Km) to 10 Km with radioactive label constant at 0.15 µCi per assay. The amount of test compound added was varied to provide final concentrations of 1 nM to 100 µM. The reaction was quenched by the addition of 50 volumes of chloroform:methanol (2:1). The steroids were then extracted and separated by high pressure liquid chromatography and the amounts of testosterone and dihydrotestosterone present were measured to determine the percent conversion of testosterone to dihydrotestosterone and to calculate the 5α-reductase activity. The activity of the test compound was then expressed as the IC₅₀, or the concentration of test compound that produced a 50% inhibition of the testosterone conversion. When compounds of the present invention were tested in this way, the following results were observed: […]
As for `CC(C)N(C(=O)[C@H]1CC[C@H]2[C@@H]3CCC4=C(N)C(=O)CC[C@]4(C)[C@H]3CC[C@]12C)C(C)C` [4-Amino-N,N-bis(1-methylethyl)-3-oxoandrost-4-ene-17β-carboxamide], 104 nM corresponded to half-maximal inhibition (IC50).

The compound `CC(C)(C)NC(=O)[C@H]1CC[C@H]2[C@@H]3CCC4=C(N)C(=O)CC[C@]4(C)[C@H]3CC[C@]12C` [4-Amino-N-(1,1-dimethylethyl)-3-oxoandrost-4-ene-17β-carboxamide] had an IC50 of 59 nM.

`CC(=O)[C@H]1CC[C@H]2[C@@H]3CCC4=C(N)C(=O)CC[C@]4(C)[C@H]3CC[C@]12C` [4-Aminopregn-4-ene-3,20-dione] had an IC50 of 50 nM.

Compound `C[C@H](CO)[C@H]1CC[C@H]2[C@@H]3CCC4=C(N)C(=O)CC[C@]4(C)[C@H]3CC[C@]12C` [(20S)-4-Amino-21-hydroxy-20-methylpregn-4-en-3-one] registered an IC50 of 54 nM. This IC50 and that of the compound before are within 1.5-fold of each other.
